Converted amounts (≈) assume the structure as drawn. Read-outs that look alike come from different tables or passages of the source.
What was measured:
[1] = test system: Pseudomonas stutzeri IFO 12695; experiment: in vitro antibacterial activity, standard agar dilution method; type: cell-based; settings: Stutzerimonas stutzeri, IFO12695, aerobic, read-out: minimum inhibitory concentration (MIC)
[2] = acute toxicity by oral administration; settings: mouse, in vivo, po
Excerpt: The acute toxicity of these compounds was examined by oral administration in ICR mice.

[3] = test system: Bacillus subtilis PCI 219; experiment: in vitro antibacterial activity, standard agar dilution method; type: cell-based; settings: PCI219, aerobic, read-out: minimum inhibitory concentration (MIC)
[4] = test system: Enterobacter aerogenes NR 2945; experiment: as above; type: cell-based; settings: Klebsiella aerogenes, NR2945, aerobic, read-out: minimum inhibitory concentration (MIC)
Escherichia coli ML4707 = experiment: in vivo therapeutic efficacy, lethal systemic infection in mice; settings: Escherichia coli, 120 h, E. coli ML4707 i.p. infection, ICR mice, mortality 5 days, read-out: 50% effective dose (ED50)
Procedure: (§1) The in vivo antibacterial activities of pyrido[3,2,1-ij]-1,3,4-benzoxadiazine derivatives prepared by Example 5, Example 30, Example 65 and Example 66 as mentioned below were tested against lethal infection of Escherichia coli ML4707, Pseudomonas aeruginosa 4au542 and Streptococcus pneumoniae 6-001. ICR mice weighing about 20 g were infected by intraperitoneal injection of a corresponding bacterial suspension. The test compounds were administered orally or subcutaneously at the time of injection. […] The respective 50% effective dose (ED50, mg/kg) which protects 50% of the animals from death caused by infection, is shown in Table 3.

[5] = test system: Streptococcus pneumoniae 6-001; experiment: as above; settings: Streptococcus pneumoniae, 6001, po, 120 h; S. pneumoniae 6-001 i.p. infection, ICR mice, p.o. at time of injection, mortality 5 days; read-out: 50% effective dose (ED50)
Procedure: as §1

[6] = test system: Pseudomonas aeruginosa 4au542; experiment: as above; settings: po, 120 h, P. aeruginosa 4au542 i.p. infection, ICR mice, p.o. at time of injection, mortality 5 days, read-out: 50% effective dose (ED50)
Procedure: as §1

[7] = test system: Peptostreptococcus anaerobius NR 2743; experiment: in vitro antibacterial activity, standard agar dilution method; type: cell-based; settings: NR2743, anaerobic, read-out: minimum inhibitory concentration (MIC)
[8] = test system: Enterococcus faecalis NR 2943; experiment: as above; type: cell-based; settings: NR2943, aerobic, read-out: minimum inhibitory concentration (MIC)
[9] = test system: Salmonella typhimurium IFO 12529; experiment: as above; type: cell-based; settings: Salmonella enterica, aerobic, read-out: minimum inhibitory concentration (MIC)
[10] = test system: Proteus vulgaris OX19 ATCC 6898; experiment: as above; type: cell-based; settings: ATCC6898, aerobic, read-out: minimum inhibitory concentration (MIC)
[11] = test system: Clostridium botulinum NR 26ll; experiment: microbe, parasite or virus in culture; type: cell-based; settings: NR26LL, read-out: minimum inhibitory concentration (MIC)
[12] = test system: Clostridium perfringens NR 2612; experiment: microbe, parasite or virus in culture; type: cell-based; settings: NR2612, read-out: minimum inhibitory concentration (MIC)
[13] = test system: Staphylococcus epidermidis IFO 12993; experiment: in vitro antibacterial activity, standard agar dilution method; type: cell-based; settings: IFO12993, aerobic, read-out: minimum inhibitory concentration (MIC)
[14] = test system: Bacteroides fragilis ATCC 23745; experiment: as above; type: cell-based; settings: ATCC23745, anaerobic, read-out: minimum inhibitory concentration (MIC)
[15] = test system: Peptococcus prevotii ATCC 9321; experiment: as above; type: cell-based; settings: Anaerococcus prevotii, ATCC9321, anaerobic, read-out: minimum inhibitory concentration (MIC)
[16] = test system: Clostridium moniliforme ATCC 25546; experiment: as above; type: cell-based; settings: ATCC25546, anaerobic, read-out: minimum inhibitory concentration (MIC)
[17] = test system: Bacteroides distasonis NR 2578; experiment: as above; type: cell-based; settings: Parabacteroides distasonis, NR2578, anaerobic, read-out: minimum inhibitory concentration (MIC)
[18] = test system: Myoplasma hominis NR 2952; experiment: as above; type: cell-based; settings: read-out: minimum inhibitory concentration (MIC)
[19] = test system: Bordetella bronchiseptica ATCC 4617; experiment: as above; type: cell-based; settings: ATCC4617, aerobic, read-out: minimum inhibitory concentration (MIC)
[20] = test system: Staphylococcus aureus NR 2855; experiment: as above; type: cell-based
[21] = test system: Bacteroides fragilis NR 2582; experiment: as above; type: cell-based; settings: NR2582, anaerobic, read-out: minimum inhibitory concentration (MIC)
Escherichia coli NR 2630 = experiment: as above; type: cell-based; settings: NR2630; Escherichia coli NR 2630; aerobic; agar dilution; read-out: minimum inhibitory concentration (MIC)
[22] = test system: Bacteroides fragilis NR 2584; experiment: as above; type: cell-based; settings: NR2584, anaerobic, read-out: minimum inhibitory concentration (MIC)
[23] = test system: Citrobacter freundii IFO 12681; experiment: as above; type: cell-based; settings: IFO12681, aerobic, read-out: minimum inhibitory concentration (MIC)
[24] = test system: Escherichia coli NIHJ JC-2; experiment: as above; type: cell-based; settings: NIHJJC2, aerobic, read-out: minimum inhibitory concentration (MIC)
[25] = test system: Propionibacterium acnes ATCC 11828; experiment: as above; type: cell-based; settings: Cutibacterium acnes, ATCC11828, anaerobic, read-out: minimum inhibitory concentration (MIC)
[26] = test system: Serratia marcescens IFO 12648; experiment: as above; type: cell-based; settings: IFO12648, aerobic, read-out: minimum inhibitory concentration (MIC)
[27] = test system: Alcaligenes faecalis IFO 13111; experiment: as above; type: cell-based; settings: IFO13111, aerobic, read-out: minimum inhibitory concentration (MIC)
[28] = ML4707, po, p.o. at time of injection
[29] = ML4707, sc, s.c. at time of injection

| Structure (SMILES) | MIC [1] | LD50 [2] | MIC [3] | MIC [4] | ED50 (Escherichia coli ML4707; [28]) | ED50 (Escherichia coli ML4707; [29]) | ED50 [5] | ED50 [6] | MIC [7] | MIC [8] | MIC [9] | MIC [10] | MIC [11] | MIC [12] | MIC [13] | MIC [14] | MIC [15] | MIC [16] | MIC [17] | MIC [18] | further results |
| --- | --- | --- | --- | --- | --- | --- | --- | --- | --- | --- | --- | --- | --- | --- | --- | --- | --- | --- | --- | --- | --- |
| CN1CCN(c2c(F)cc3c(=O)c(C(=O)O)cn4c3c2OCN4C)CC1 [Example 5, 9-fluoro-3-methyl-10-(4-methyl-1-piperazinyl)-7-oxo-2,3-dihydro-7H-pyrido[3,2,1-ij]-1,3,4-benzoxadiazine-6-carboxylic acid] | 0.025 µg/mL (≈ 0.069 µM) | > 2000 mg/kg | 0.05 µg/mL (≈ 0.138 µM) | 0.013 µg/mL (≈ 0.0359 µM) | 0.11 mg/kg | 0.06 mg/kg | 10.3 mg/kg | 13.4 mg/kg | 0.39 µg/mL (≈ 1.08 µM) | 3.13 µg/mL (≈ 8.64 µM) | 0.025 µg/mL (≈ 0.069 µM) | 0.013 µg/mL (≈ 0.0359 µM) | 0.1 µg/mL (≈ 0.276 µM) | 0.39 µg/mL (≈ 1.08 µM) | 0.39 µg/mL (≈ 1.08 µM) | 0.78 µg/mL (≈ 2.15 µM) | 1.56 µg/mL (≈ 4.31 µM) | 0.78 µg/mL (≈ 2.15 µM) | 0.78 µg/mL (≈ 2.15 µM) | 0.1 µg/mL (≈ 0.276 µM) | MIC [19]: 0.2 µg/mL (≈ 0.552 µM); MIC ([20]; NR2855, Staphylococcus aureus NR 2855, aerobic, agar dilution, read-out: minimum inhibitory concentration (MIC)): 0.2 µg/mL (≈ 0.552 µM); MIC [21]: 0.78 µg/mL (≈ 2.15 µM); MIC (Escherichia coli NR 2630): 0.013 µg/mL (≈ 0.0359 µM); MIC [22]: 0.78 µg/mL (≈ 2.15 µM); MIC [23]: 0.013 µg/mL (≈ 0.0359 µM); MIC [24]: 0.025 µg/mL (≈ 0.069 µM); MIC [25]: 0.78 µg/mL (≈ 2.15 µM); MIC [26]: 0.1 µg/mL (≈ 0.276 µM); MIC [27]: 0.39 µg/mL (≈ 1.08 µM) |
| CN1COc2c(N3CCC(N)C3)c(F)cc3c(=O)c(C(=O)O)cn1c23 (stereo not drawn) [Example 30, 10-(3-amino-1-pyrrolidinyl)-9-fluoro-3-methyl-7-oxo-2,3-dihydro-7H-pyrido[3,2,1-ij]-1,3,4-benzoxadiazine-6-carboxylic acid] | 0.0033 µg/mL (≈ 0.00947 µM) | > 2000 mg/kg | 0.025 µg/mL (≈ 0.0718 µM) | 0.0033 µg/mL (≈ 0.00947 µM) | 0.62 mg/kg | 0.1 mg/kg | 65.9 mg/kg | 57 mg/kg | 0.013 µg/mL (≈ 0.0373 µM) | 3.13 µg/mL (≈ 8.99 µM) | 0.0065 µg/mL (≈ 0.0187 µM) | 0.0065 µg/mL (≈ 0.0187 µM) | 0.013 µg/mL (≈ 0.0373 µM) | 0.1 µg/mL (≈ 0.287 µM) | 0.2 µg/mL (≈ 0.574 µM) | 0.2 µg/mL (≈ 0.574 µM) | 0.39 µg/mL (≈ 1.12 µM) | 0.1 µg/mL (≈ 0.287 µM) | 0.78 µg/mL (≈ 2.24 µM) | 0.1 µg/mL (≈ 0.287 µM) | MIC [19]: 1.56 µg/mL (≈ 4.48 µM); MIC ([20]; Staphylococcus aureus, NR2855, read-out: minimum inhibitory concentration (MIC)): 0.39 µg/mL (≈ 1.12 µM); MIC [21]: 0.39 µg/mL (≈ 1.12 µM); MIC (Escherichia coli NR 2630): 0.0065 µg/mL (≈ 0.0187 µM); MIC [22]: 0.78 µg/mL (≈ 2.24 µM); MIC [23]: 0.013 µg/mL (≈ 0.0373 µM); MIC [24]: 0.013 µg/mL (≈ 0.0373 µM); MIC [25]: 0.78 µg/mL (≈ 2.24 µM); MIC [26]: 0.05 µg/mL (≈ 0.144 µM); MIC [27]: 1.56 µg/mL (≈ 4.48 µM) |

— patent US4864023A, “Pyrido(3,2,1-IJ)-1,3,4-benzoxadiazine derivatives” (priority 1988, dated 1989)
